Results published in the NIST ThermoML archive (doi:10.1021/je100526j).

Columns and labels:
[1] = xn = mol fraction of the nth substance listed; settings: 101 kPa, Liquid
[2] = for mass density: 101 kPa, Liquid; for Normal melting temperature: Crystal, visual observation

C1CCCCC1 [cyclohexane] + c1cc[nH]c1
[1], x2 = 0
Settings | mass density [kg/m3]
298.15 K | 773.87
308.15 K | 764.38
318.15 K | 754.77
328.15 K | 745.04
338.15 K | 735.18

c1cc[nH]c1 [pyrrole] + c1ccccc1
mass density [kg/m3], [1]
Settings | 298.15 K | 308.15 K | 318.15 K | 328.15 K | 338.15 K
x1 = 0.0447 | 878.11 | 867.49 | 856.79 | 846 | 835.1
x1 = 0.1287 | 886.6 | 876.17 | 865.66 | 855.06 | 844.34
x1 = 0.2144 | 894.89 | 884.68 | 874.36 | 863.95 | 853.41
x1 = 0.3142 | 904.35 | 894.36 | 884.28 | 874.1 | 863.91
x1 = 0.3916 | 911.83 | 902.01 | 892.11 | 882.08 | 871.95
x1 = 0.503 | 922.04 | 912.44 | 902.77 | 892.98 | 883.08
x1 = 0.5973 | 930.57 | 921.15 | 911.66 | 902.07 | 892.35
x1 = 0.6693 | 936.98 | 927.73 | 918.38 | 908.92 | 899.34
x1 = 0.7371 | 942.99 | 933.85 | 924.62 | 915.29 | 905.82
x1 = 0.8207 | 950.33 | 941.34 | 932.26 | 923.07 | 913.74
x1 = 0.8732 | 954.72 | 945.81 | 936.8 | 927.7 | 918.46
x1 = 0.9214 | 958.96 | 950.13 | 941.21 | 932.19 | 923.04
x1 = 0.979 | 963.65 | 954.92 | 946.08 | 937.17 | 928.12
x1 = 1 | 965.54 | 956.83 | 948.03 | 939.14 | 930.13

c1ccccc1 [benzene] + c1cc[nH]c1
[1], x2 = 0
Settings | mass density [kg/m3]
298.15 K | 873.63
308.15 K | 862.91
318.15 K | 852.12
328.15 K | 841.24
338.15 K | 830.26

c1ccccc1 [benzene]
[2]
Settings | mass density [kg/m3]
298.15 K | 873.63
308.15 K | 862.91
318.15 K | 852.12
328.15 K | 841.24
338.15 K | 830.26

Settings | Normal melting temperature [°C]
[2] | 5.5

C1CCCCC1 [cyclohexane]
[2]
Settings | mass density [kg/m3]
298.15 K | 773.87
308.15 K | 764.38
318.15 K | 754.77
328.15 K | 745.04
338.15 K | 735.18

Settings | Normal melting temperature [°C]
[2] | 7
